Source: ChEMBL document CHEMBL3822377, “Locking PDK1 in DFG-out conformation through 2-oxo-indole containing molecules: Another tools to fight glioblastoma” (Eur J Med Chem, 2016)

Columns and labels:
[1] = target: T1, 3-phosphoinositide-dependent protein kinase 1 (Homo sapiens) (UniProt O15530); test: Inhibition of PDK1 (unknown origin) at 10 uM by FRET-based Z-lyte assay
T1 sequence (whole entry): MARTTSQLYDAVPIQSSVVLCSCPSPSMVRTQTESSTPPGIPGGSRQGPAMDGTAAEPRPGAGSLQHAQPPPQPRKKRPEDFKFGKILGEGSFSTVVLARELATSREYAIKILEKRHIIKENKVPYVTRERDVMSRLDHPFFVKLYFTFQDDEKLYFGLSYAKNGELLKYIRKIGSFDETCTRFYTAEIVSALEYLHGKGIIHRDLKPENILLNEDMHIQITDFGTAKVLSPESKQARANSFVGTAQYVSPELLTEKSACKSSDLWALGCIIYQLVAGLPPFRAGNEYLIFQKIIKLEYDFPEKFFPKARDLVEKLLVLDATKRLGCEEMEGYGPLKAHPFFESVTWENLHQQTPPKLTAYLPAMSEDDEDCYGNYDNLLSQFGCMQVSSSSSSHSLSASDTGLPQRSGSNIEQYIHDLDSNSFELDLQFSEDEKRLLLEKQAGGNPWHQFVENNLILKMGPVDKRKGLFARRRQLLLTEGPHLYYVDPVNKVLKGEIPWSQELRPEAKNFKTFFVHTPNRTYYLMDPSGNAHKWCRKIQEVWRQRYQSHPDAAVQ

[2] = target: CDK9/cyclin T1 (Homo sapiens) (UniProt O60563+P50750); test: Inhibition of His-tagged full-length human recombinant CDK9/Cyclin T1 expressed in baculovirus system at 100 nM by adapta assay
[3] = target: PI3-kinase p110-delta/p85-alpha (Homo sapiens) (UniProt P27986+O00329); test: Inhibition of His-tagged full-length human PIK3CD/PIK3R1 expressed in baculovirus system at 100 nM by adapta assay
[4] = target: Phosphatidylinositol 4,5-bisphosphate 3-kinase catalytic subunit gamma isoform (Homo sapiens) (UniProt P48736); test: Inhibition of His-tagged full-length human PIK3CG expressed in baculovirus system at 100 nM by adapta assay
[5] = target: Tyrosine-protein kinase BTK (Homo sapiens) (UniProt Q06187); test: Inhibition of His-tagged full-length human BTK expressed in baculovirus system at 100 nM by Z-lyte assay
[6] = target: RAC-gamma serine/threonine-protein kinase (Homo sapiens) (UniProt Q9Y243); test: Inhibition of His-tagged full-length human AKT3 expressed in baculovirus system at 100 nM by Z-lyte assay
[7] = target: AMP-activated protein kinase, AMPK (Homo sapiens) (UniProt P54646+O43741+P54619+Q9UGJ0+Q9Y478+Q13131+Q9UGI9); test: Inhibition of GST/His-tagged full-length human recombinant AMPK A2/B1/G1 expressed in baculovirus system at 100 nM by Z-lyte assay
[8] = target: CDK2/Cyclin A2 (Homo sapiens) (UniProt P24941+P20248); test: Inhibition of GST-tagged human CDK2/Cyclin A expressed in baculovirus system at 100 nM by Z-lyte assay
[9] = target: Cyclin-dependent kinase 5/CDK5 activator 1 (Homo sapiens) (UniProt Q00535+Q15078); test: Inhibition of His-tagged full-length human CDK5/p35 expressed in baculovirus system at 100 nM by Z-lyte assay
[10] = target: Casein kinase II subunit alpha' (Homo sapiens) (UniProt P19784); test: Inhibition of GST-tagged full-length human recombinant CSNK2A2 expressed in baculovirus system at 100 nM by Z-lyte assay
[11] = target: Glycogen synthase kinase-3 beta (Homo sapiens) (UniProt P49841); test: Inhibition of His-tagged full-length recombinant human GSK3 beta expressed in baculovirus system at 100 nM by Z-lyte assay
[12] = target: Tyrosine-protein kinase JAK1 (Homo sapiens) (UniProt P23458); test: Inhibition of cytosolic GST-tagged full-length recombinant human JAK1 expressed in baculovirus system at 100 nM by Z-lyte assay
[13] = target: Tyrosine-protein kinase Lck (Homo sapiens) (UniProt P06239); test: Inhibition of His-tagged full-length human LCK expressed in baculovirus system at 100 nM by Z-lyte assay
[14] = target: Mitogen-activated protein kinase 8 (Homo sapiens) (UniProt P45983); test: Inhibition of His-tagged full-length human MAPK8 expressed in baculovirus system at 100 nM by Z-lyte assay
[15] = target: Mitogen-activated protein kinase 9 (Homo sapiens) (UniProt P45984); test: Inhibition of His-tagged full-length recombinant human MAPK9 expressed in baculovirus system at 100 nM by Z-lyte assay
[16] = target: MAP kinase-activated protein kinase 2 (Homo sapiens) (UniProt P49137); test: Inhibition of His-tagged full-length recombinant human MAPKAPK2 expressed in Escherichia coli at 100 nM by Z-lyte assay
[17] = target: Protein kinase C zeta type (Homo sapiens) (UniProt Q05513); test: Inhibition of full-length recombinant human PRKCZ expressed in baculovirus system at 100 nM by Z-lyte assay
[18] = target: Rho-associated protein kinase 2 (Homo sapiens) (UniProt O75116); test: Inhibition of catalytic recombinant GST-tagged human ROCK2 expressed in baculovirus system at 100 nM by Z-lyte assay
[19] = (§1) Antiproliferative activity against human U87MG cells after 72 hrs by MTS assay; assay type: functional, cell-based, U-87MG ATCC; details: U-87 MG
U-87MG ATCC = test: as §1; assay type: functional, cell-based
U-87 MG [20] = test: Induction of apoptosis in human U87MG cells assessed as late apoptotic cells by measuring phosphatidylserine externalisation at 10 uM after 72 hrs in presence of 7-amino-actinomysin by AnnexinV/FITC staining-based flow cytometry (reference value: 4.46%); assay type: functional, U-87MG ATCC
U-87 MG [21] = test: Induction of apoptosis in human U87MG cells assessed as early apoptotic cells by measuring phosphatidylserine externalisation at 10 uM after 72 hrs by AnnexinV/FITC staining-based flow cytometry (reference value: 6.39%); assay type: functional, U-87MG ATCC
U-87 MG [22] = test: Induction of apoptosis in human U87MG cells assessed as live cells by measuring phosphatidylserine externalisation at 10 uM after 72 hrs by AnnexinV/FITC staining-based flow cytometry (reference value: 87.05%); assay type: functional, U-87MG ATCC
U-87 MG [23] = test: Induction of apoptosis in human U87MG cells assessed as dead cells by measuring phosphatidylserine externalisation at 10 uM after 72 hrs in presence of 7-amino-actinomysin by AnnexinV/FITC staining-based flow cytometry (reference value: 2.1%); assay type: functional, U-87MG ATCC
[24] = Induction of apoptosis in human GSC cells assessed as early apoptotic cells by measuring phosphatidylserine externalisation at 10 uM after 7 days by AnnexinV/FITC staining-based flow cytometry (reference value: 6.69%); assay type: functional
[25] = Induction of apoptosis in human GSC cells assessed as live cells by measuring phosphatidylserine externalisation at 10 uM after 7 days by AnnexinV/FITC staining-based flow cytometry (reference value: 87.49%); assay type: functional
[26] = target: T1, 3-phosphoinositide-dependent protein kinase 1 (Homo sapiens); test: Inhibition of PDK1 in human U87MG cells assessed as reduction in AKT phosphorylation at Thr308 residue at 10 uM measured at 120 mins by ELISA relative to control; assay type: cell-based; details: U-87MG ATCC

Sequence of Tyrosine-protein kinase JAK1 (Homo sapiens) (P23458 whole entry): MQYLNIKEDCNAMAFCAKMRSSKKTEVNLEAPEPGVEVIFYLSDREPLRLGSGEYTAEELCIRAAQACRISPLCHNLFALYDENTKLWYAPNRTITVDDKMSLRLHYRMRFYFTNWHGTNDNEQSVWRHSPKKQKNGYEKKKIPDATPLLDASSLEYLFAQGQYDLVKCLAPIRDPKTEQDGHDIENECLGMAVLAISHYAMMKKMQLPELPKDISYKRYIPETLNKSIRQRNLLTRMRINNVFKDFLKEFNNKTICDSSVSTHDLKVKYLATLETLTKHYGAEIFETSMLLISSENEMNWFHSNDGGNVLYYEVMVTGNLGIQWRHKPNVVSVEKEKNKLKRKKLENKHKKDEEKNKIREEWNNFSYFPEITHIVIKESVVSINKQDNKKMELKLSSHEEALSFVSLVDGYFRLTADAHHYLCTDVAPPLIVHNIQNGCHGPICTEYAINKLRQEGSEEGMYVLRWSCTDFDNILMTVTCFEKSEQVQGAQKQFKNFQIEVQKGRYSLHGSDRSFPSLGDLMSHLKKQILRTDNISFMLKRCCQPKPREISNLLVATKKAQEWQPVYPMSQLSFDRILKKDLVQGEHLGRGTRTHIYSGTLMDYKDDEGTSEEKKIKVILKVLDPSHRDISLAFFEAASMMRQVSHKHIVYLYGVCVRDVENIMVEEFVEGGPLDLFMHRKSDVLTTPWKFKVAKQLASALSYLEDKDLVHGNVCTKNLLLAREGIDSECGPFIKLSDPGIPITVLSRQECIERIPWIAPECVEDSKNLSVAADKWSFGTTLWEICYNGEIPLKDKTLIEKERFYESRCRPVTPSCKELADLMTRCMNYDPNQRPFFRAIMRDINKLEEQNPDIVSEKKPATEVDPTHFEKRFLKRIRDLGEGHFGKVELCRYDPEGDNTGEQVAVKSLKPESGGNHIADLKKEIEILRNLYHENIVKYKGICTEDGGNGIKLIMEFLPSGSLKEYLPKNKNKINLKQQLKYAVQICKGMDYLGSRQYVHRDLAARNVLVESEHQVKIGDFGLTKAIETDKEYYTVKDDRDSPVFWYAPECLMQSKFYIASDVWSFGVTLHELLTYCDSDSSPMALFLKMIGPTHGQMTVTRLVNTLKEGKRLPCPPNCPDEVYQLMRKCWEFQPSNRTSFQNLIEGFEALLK
Sequence of Tyrosine-protein kinase BTK (Homo sapiens) (Q06187 whole entry): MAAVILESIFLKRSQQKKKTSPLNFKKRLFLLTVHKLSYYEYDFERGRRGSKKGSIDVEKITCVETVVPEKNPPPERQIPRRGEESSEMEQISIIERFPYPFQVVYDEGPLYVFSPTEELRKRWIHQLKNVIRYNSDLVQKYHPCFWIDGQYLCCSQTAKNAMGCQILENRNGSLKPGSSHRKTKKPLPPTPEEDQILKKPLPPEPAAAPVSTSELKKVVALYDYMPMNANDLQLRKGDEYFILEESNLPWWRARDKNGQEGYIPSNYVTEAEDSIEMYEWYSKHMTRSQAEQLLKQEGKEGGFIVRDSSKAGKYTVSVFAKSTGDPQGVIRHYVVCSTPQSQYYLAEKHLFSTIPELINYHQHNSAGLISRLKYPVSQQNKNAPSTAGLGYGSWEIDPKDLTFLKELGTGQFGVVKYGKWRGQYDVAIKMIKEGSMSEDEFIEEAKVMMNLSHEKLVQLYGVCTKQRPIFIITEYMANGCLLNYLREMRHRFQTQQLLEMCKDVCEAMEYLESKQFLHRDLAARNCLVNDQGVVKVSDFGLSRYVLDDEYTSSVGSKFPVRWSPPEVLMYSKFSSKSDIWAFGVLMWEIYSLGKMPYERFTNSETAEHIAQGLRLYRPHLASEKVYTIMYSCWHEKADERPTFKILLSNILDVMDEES
Sequence of Glycogen synthase kinase-3 beta (Homo sapiens) (P49841 whole entry, looked up): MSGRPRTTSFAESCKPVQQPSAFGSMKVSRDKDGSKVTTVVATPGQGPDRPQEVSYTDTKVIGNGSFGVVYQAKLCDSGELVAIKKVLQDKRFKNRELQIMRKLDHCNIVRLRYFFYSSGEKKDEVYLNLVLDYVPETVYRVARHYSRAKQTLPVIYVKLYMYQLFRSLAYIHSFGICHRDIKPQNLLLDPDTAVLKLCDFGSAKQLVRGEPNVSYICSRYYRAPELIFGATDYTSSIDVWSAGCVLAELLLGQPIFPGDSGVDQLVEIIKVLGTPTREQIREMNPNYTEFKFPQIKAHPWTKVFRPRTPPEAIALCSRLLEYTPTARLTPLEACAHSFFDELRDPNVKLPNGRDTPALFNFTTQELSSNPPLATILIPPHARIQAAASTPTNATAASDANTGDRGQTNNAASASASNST
Sequence of Mitogen-activated protein kinase 9 (Homo sapiens) (P45984 whole entry, looked up): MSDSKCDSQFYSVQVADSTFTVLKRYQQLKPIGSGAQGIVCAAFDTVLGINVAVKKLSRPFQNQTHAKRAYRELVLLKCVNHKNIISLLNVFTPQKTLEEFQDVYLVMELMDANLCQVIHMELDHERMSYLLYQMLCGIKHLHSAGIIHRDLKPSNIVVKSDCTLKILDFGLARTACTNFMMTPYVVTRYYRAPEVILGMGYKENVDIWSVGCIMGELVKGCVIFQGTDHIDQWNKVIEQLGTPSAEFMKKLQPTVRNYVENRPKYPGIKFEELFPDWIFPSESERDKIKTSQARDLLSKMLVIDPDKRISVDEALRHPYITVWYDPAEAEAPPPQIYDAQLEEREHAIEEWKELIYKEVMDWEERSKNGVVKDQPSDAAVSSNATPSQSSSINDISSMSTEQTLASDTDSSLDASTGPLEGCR
Sequence of RAC-gamma serine/threonine-protein kinase (Homo sapiens) (Q9Y243 whole entry): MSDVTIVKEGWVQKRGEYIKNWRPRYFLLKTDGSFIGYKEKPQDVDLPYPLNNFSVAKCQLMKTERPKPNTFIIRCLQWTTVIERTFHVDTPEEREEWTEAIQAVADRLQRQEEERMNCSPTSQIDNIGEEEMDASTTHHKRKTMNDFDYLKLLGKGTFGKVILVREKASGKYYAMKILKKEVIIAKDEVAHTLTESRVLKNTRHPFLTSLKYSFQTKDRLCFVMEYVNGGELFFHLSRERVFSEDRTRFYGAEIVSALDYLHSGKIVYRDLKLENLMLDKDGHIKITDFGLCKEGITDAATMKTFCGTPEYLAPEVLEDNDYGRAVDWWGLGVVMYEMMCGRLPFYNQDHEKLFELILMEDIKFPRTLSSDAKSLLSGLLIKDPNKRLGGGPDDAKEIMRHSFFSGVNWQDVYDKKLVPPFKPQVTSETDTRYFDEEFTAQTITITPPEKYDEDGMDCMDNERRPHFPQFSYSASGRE
Sequence of MAP kinase-activated protein kinase 2 (Homo sapiens) (P49137 whole entry, looked up): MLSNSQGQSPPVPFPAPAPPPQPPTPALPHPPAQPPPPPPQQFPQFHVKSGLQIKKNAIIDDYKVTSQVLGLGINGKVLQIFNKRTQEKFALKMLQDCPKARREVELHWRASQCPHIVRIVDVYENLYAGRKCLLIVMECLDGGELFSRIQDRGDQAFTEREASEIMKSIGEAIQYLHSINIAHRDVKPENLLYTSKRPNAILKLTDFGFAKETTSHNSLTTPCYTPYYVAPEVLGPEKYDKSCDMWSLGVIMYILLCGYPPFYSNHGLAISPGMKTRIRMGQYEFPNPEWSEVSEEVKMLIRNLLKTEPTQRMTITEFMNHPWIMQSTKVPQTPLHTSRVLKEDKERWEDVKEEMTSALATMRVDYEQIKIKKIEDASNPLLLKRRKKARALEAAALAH
Sequence of Rho-associated protein kinase 2 (Homo sapiens) (O75116 whole entry, looked up): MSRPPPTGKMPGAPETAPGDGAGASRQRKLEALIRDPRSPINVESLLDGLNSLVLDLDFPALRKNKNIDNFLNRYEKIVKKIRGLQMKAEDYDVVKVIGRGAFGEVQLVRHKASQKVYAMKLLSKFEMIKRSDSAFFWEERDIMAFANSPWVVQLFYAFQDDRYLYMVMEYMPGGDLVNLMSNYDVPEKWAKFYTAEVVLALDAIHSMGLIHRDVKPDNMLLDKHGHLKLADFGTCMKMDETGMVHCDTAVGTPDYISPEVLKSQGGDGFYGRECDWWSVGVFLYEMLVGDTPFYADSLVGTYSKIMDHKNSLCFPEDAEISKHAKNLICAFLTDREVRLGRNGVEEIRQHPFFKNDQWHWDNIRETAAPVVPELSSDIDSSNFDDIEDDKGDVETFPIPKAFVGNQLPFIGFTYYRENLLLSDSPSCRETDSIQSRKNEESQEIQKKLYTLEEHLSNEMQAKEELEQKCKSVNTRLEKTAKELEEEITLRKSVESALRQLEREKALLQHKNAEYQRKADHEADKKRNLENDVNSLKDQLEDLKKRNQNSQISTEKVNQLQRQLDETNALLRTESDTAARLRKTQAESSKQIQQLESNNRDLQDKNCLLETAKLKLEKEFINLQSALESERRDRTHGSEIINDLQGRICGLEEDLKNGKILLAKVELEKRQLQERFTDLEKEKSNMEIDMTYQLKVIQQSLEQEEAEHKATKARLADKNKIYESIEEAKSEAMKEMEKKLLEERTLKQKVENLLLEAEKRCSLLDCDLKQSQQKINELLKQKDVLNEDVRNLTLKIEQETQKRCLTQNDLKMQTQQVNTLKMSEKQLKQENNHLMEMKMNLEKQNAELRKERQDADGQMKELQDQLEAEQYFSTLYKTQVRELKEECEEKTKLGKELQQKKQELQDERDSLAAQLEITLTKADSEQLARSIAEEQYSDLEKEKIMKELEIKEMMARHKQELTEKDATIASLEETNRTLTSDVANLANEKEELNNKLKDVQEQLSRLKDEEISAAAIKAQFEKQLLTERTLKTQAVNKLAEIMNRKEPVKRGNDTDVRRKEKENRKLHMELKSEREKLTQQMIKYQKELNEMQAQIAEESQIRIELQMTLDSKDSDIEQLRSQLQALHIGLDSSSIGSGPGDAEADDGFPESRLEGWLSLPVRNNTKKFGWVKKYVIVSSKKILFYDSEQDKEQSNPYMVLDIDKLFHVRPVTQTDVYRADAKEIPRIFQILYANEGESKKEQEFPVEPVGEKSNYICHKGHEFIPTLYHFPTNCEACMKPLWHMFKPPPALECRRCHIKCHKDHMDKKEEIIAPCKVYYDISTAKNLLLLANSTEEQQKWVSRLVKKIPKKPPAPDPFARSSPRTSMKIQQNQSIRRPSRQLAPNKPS

O=C(CNC(=O)c1cccn(Cc2ccc(F)c(F)c2)c1=O)Nc1ccc2c(c1)/C(=C/c1cnc[nH]1)C(=O)N2
inhibition [1]: 87% | inhibition [2]: 6% | inhibition [3]: 17% | inhibition [4]: 2% | inhibition [5]: -3% | inhibition [6]: 2% | inhibition [7]: 10% | inhibition [8]: 4% | inhibition [9]: 2% | inhibition [10]: 3% | inhibition [11]: 24% | inhibition [12]: -8% | inhibition [13]: 9% | inhibition [14]: 12% | inhibition [15]: -1% | inhibition [16]: 0% | inhibition [17]: -3% | inhibition [18]: 2% | IC50 [19]: 450 nM | inhibition (U-87MG ATCC): Dose-dependent effect | Activity (U-87 MG [20]): 5.65% | Activity (U-87 MG [21]): 17.3% | Activity (U-87 MG [22]): 76.41% | Activity (U-87 MG [23]): 0.64% | Activity [24]: 16.15% | Activity [25]: 58.6% | inhibition [26]: 19.6%
